Source: patent US20170051249A1, “MANIPULATION OF OVARIAN PRIMORDIAL FOLLICLES” (The Board of Trustees of the Leland Stanford junior …, priority 2009, published 2017)

Key:
[1] = system: dormant primordial follicles of neonatal ovaries; test: Transient in vitro exposure of neonatal mouse ovaries to PTEN inhibitor, kidney capsule transplantation into ovariectomized FSH-treated hosts, histology (Examples 2 and 3); type: in vivo
Procedure: Ovaries fixed for at least 24 h are dehydrated, embedded in paraffin, and serially sectioned at 5 μm intervals. The sections are mounted on glass slides and stained with Mayers hematoxylin and eosin. Follicles are counted using the dissector and fractionator principles (see Mayhew et al. (1991) Exp Physiol 76:639-65). Every fifth section of each ovary is used for analysis. Follicle stages are determined based on the classification used by Flaws et al. (1997) Biol. Reprod. 57:1233-1237. Follicles are assessed blindly and confirmed by two investigators. Data is expressed as percentage of follicle per ovary.
Follicles are identified as healthy if they contained an intact oocyte, organized granulosa and thecal cell layers, and no pyknotic bodies. Follicles are considered atretic if they contain a degenerating oocyte, disorganized granulosa cells with pyknotic nuclei or apoptotic bodies. Follicles will be scored as “primordial” if they contain an intact oocyte with a visible nucleolus surrounded by a single layer of fusiform-shaped granulosa cells. Follicles are scored as “primary” if they consist of an intact, enlarged oocyte with a visible nucleolus and a single layer of cuboidal granulosa cells. Follicles are scored as preantral if they contain an oocyte with a visible nucleolus and more than one layer of granulosa or thecal cells. To obtain an estimate of the total number of follicles per ovary, the number of primordial, primary, and preantral follicles are multiplied by 5 to account for the fact that every fifth section was used for analyses. Statistical analysis of follicle number is performed using Sigmastat statistical software v.2 (Jandel Corporation, San Rafael, Calif., USA).
Transient incubation of neonatal ovaries in vitro with bpV(pic) may avoid the adverse side effects of the PTEN inhibitor in vivo to allow a tissue-specific action of the inhibitor. After treatment using the PTEN inhibitor, ovaries are transplanted into adult hosts. To facilitate follicle growth, adult recipients are ovariectomized to increase endogenous gonadotropin levels. […]

[2] = system: Foxo3 nuclear export in primordial oocytes; test: Foxo3 nuclear export in primordial follicles of human ovarian cortical cubes; type: cell-based; conditions: 1 h treatment, 100 uM
Procedure: (§1) Informed consent from the patient and approval from the Human Subject Committee of Akita University were obtained. Ovarian cortex was isolated and cut into small cubes (˜1 mm^3). After treatment of cortical cubes for 1 h with bpV(pic), some samples were used for immunohistochemical staining for Foxo3. Some ovarian cubes were also cultured in MEM-a medium containing 10% human serum albumin (Mitsubishi Tanabe Pharma Corp, Osaka, Japan), 1% antibiotic/antimycotic solution (Invitrogen), and 0.3 IU/ml FSH. Pairs of cortical cubes were treated with bpV(pic) ([…]) or saline for 24 h before xeno-transplantation into each side of the kidney capsule of ovariectomized, immune-deficient SCID mice. An i.p. injection of antibiotic (4 μg/g body weight; gentamicin; Invitrogen) was given while animals were anesthetized by 2,2,2-tribromoethanol (0.4 mg/g body weight; avertin; Sigma). Three day after transplantation, animals were treated i.p. with FSH (1 IU/animal) every 48 h for 24 weeks. At 36 h before sample retrieval, hCG (20 IU/animal) was injected subcutaneously. Ovarian grafts were recovered for histological analyses and follicle counting.

[3] = system: human primordial follicles; test: Human follicle activation: cortical cubes treated in vitro, xeno-transplanted into kidney capsule of ovariectomized SCID mice, follicle counting; type: in vivo
Procedure: as §1

PTEN = PTEN (Homo sapiens, UniProt P60484); conditions: in vitro, known inhibitors; read-out: IC50 for inhibition of PTEN; cited from earlier work
PTP = conditions: read-out: IC50 as PTP inhibitor; cited from earlier work
[4] = antral follicles of four grafts, after hCG

Sequence of PTEN (P60484 whole entry): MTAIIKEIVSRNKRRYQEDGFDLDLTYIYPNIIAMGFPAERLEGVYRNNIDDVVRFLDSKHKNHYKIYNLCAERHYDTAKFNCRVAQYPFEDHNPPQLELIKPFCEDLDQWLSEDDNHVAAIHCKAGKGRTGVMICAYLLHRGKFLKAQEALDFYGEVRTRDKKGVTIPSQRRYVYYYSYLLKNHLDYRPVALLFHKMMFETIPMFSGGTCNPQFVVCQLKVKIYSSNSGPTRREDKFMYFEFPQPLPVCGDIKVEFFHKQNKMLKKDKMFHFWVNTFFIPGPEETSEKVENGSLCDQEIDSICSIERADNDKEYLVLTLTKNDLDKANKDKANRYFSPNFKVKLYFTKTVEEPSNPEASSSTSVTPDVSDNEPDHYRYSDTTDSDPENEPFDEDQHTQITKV

Which results are given for `O.O.O=C([O-])c1ccccn1.OO.OO.[K+].[K+].[OH-].[V]` [bpV(pic), dipotassium bisperoxo(picolinato)oxovanadate (V)]?
ovarian size as compared with control ovaries ([1]; 100 μM for 24 h in vitro, twelve days after transplantation): clear increases in sizes; decrease of the percentage of primordial (Pmd) follicles as compared to controls ([1]; 250 uM for 6 h in vitro, day 3 Balb/c ovaries, transplanted, FSH 12 days, preliminary analysis, three pairs of ovaries): 60%; effect on follicle development and nuclear maturation of the preovulatory oocyte ([1]; 6 h in vitro exposure, 15 days after transplantation, hCG 8 h): did not cause detrimental effects; increase in nuclear exclusion of Foxo3 versus controls [2]: 2 fold; follicles that left the dormant primordial pool and developed into larger follicles ([3]; 24 h treatment (100 mM), after transplantation, FSH 24 weeks): 89%; graft size as compared with controls ([3]; 24 h treatment, 6 months after xeno-transplantation): major increases in graft sizes; increases in the number of secondary and antral follicles ([3]; 24 h treatment, after xeno-transplantation): ~4 fold; number of oocytes at GV stage [3, 4]: 5; number of oocytes at MI stage [3, 4]: 15; number of oocytes at MII stage [3, 4]: 12; number of antral follicles (>1 mm diameter) ([3]; in four ovarian grafts): 32; malignancy in xenografted human ovaries or hosts ([3]; six months of transplantation, short term exposure): No malignancy was found; increase in the number of antral follicles ([3]; versus paired control grafts): 4 fold; increase in the number of mature (MI & MII) oocytes ([3]; versus paired control grafts): 27 fold; IC50 (PTEN): 31 nM

For `OO.OO.[K+].[OH-].[V].c1cnc2c(c1)ccc1cccnc12` [potassium bisperoxo (1,10-phenanthroline)oxovanadate (V)], which IC50 (PTEN) is on record?
The IC50 was 38 nM.

For “dipotassium bisperoxo(5-hydroxypyridine-2-carboxyl)oxovanadate (V)”, which IC50 (PTEN) is on record?
Its IC50 is 14 nM.

For monoperoxo(picolinato)oxovanadate(V), which IC50 (PTP) is on record?
The IC50 was 18000 nM.

Which IC50 (PTEN) does the source give for “potassium bisperoxo(bipyridine)oxovanadate (V)” here?
The IC50 was 18 nM.
